Key:
Test in all cases: TAG hydrolase assay, chimeric ATGL variants
Format in all cases: biochemical, human and mouse
[1] = biological target: T1, Variant c3 containing aa 1–23 of human ATGL (Homo sapiens, UniProt Q96AD5, F69I/F97C/G146T/H109R/I93T/K68N/N133S/S106C/S111N/S158T/S96G/V101T/V60A); conditions: variant c3, NG-497 (10 μM) or Atglistatin (10 μM)
T1 construct: host or cells: Expi293 cells, cell lysate
Description: (§1) Figure 5 Analysis of chimeric proteins comprising human and mouse ATGL. (a) Schematic view of the minimal active domain of wild-type and chimeric ATGL variants (c1–c9). Nonidentical aa are indicated in blue and red for mouse and human ATGL, respectively. ATGL variants were expressed in Expi293 cells and TAG hydrolase activity was determined in cell lysates in the presence or absence of NG-497 (10 μM) and Atglistatin (10 μM), respectively. Inhibition of ATGL variants by respective inhibitors (tick mark) and lack of inhibition (cross) is indicated at the right edge. The expression of all ATGL variants was confirmed by Western blotting analysis (Figure S6). (b) Dose-dependent inhibition of human ATGL (aa 1–288) and c1 (human aa 1–158 and mouse aa 159–288) by NG-497. (c) Dose-dependent inhibition of mouse ATGL (aa 1–288) and c2 (mouse aa 1–158 and human aa 159–288) by Ai. IC50 values are shown in the insets. Data are presented as relative inhibition of respective DMSO controls and are indicated as mean ± SD. (d) 3D homology model of the minimal active domain of mouse ATGL (M1–L254) depicted as a cartoon. Residues 1–178 are in blue, and residues 179–254 are in gray. S47 and D166 comprising the active site are represented as green sticks. T101, C106, R109, N111, and S133 are colored in orange, A60, N68, I69, T93, C97, and T146 are colored in magenta. TEXT PRINTED IN THE PICTURE: (b) NG-497: IC50 [μM] (human): 1.3±0.1; IC50 [μM] (c1): 1.3±0.1 | (b) Ai: IC50 [μM] (human): n.det.; IC50 [μM] (c1): n.det. | (c) NG-497: IC50 [μM] (mouse): n.det.; IC50 [μM] (c2): n.det. | (c) Ai: IC50 [μM] (mouse): 2.5±0.3; IC50 [μM] (c2): 2.4±0.1 […]
(§2) We next generated variants by further stepwise humanization of c2. Variant c3 containing aa 1–23 of human ATGL was inhibited by Ai but not NG-497 (Figure 5a). […] Finally, variants of mouse ATGL containing aa 1–146 (c7) and 60–146 (c8) of human ATGL were inhibited by NG-497 but not Ai (Figure 5a).
(§3) Experimental details, materials, and methods
(§4) Expression of recombinant ATGL constructs and preparation of cell lysates. Expi293 cells were cultivated in Expi293 Expression Medium (GIBCO, Thermo Fisher Scientific, Waltham, USA) at standard conditions (37°C, 5% CO2, 95% humidified atmosphere, 125 rpm). DNA constructs containing ATGL from different species and chimeric ATGL variants in pcDNA3.1(+)myc-His C Vector were obtained from BioCat GmbH (Heidelberg, Germany). Cells were transfected with ExpiFectamine293 Transfection Kit (GIBCO) in Opti-Mem reduced serum medium (GIBCO) according to the manufacturer’s instructions. After 48 h, cells were harvested by centrifugation and washed three times with PBS. Cells were disrupted in buffer A (0.25 M sucrose, 1 mM EDTA, 1 mM dithiothreitol, 20µg/ml leupeptin, 2 µg/ml antipain, 1 µg/ml pepstatin, pH 7.0) by sonication (Virsonic 475, Virtis, Gardiner, USA). Nuclei and debris were removed by centrifugation at 1,000 g and 4°C for 10 min. Protein concentrations were determined using Bio-Rad protein assay (Bio-Rad 785, Bio-Rad Laboratories, Munich, Germany) using BSA as standard.
(§5) Expression and purification of mouse CGI-58. CGI-58 was expressed and purified as described 1. In brief, the coding sequence of mouse Cgi-58 was cloned into pHis-Sumo and co-transformed with the plasmid pTf16 expressing the chaperone Tig into E. coli BL21(DE3). Cells were cultured overnight at 37°C and 180 rpm in the presence of 40 µg/ml kanamycin and 34 µg/ml chloramphenicol. Thereafter, cells were transferred into fresh LB medium, grown until OD600 of 0.6, and expression was induced by the addition of 0.5 mM IPTG. After overnight incubation at 30°C, cells were harvested at 4,500 x g and 4°C for 20 min, washed in 1x PBS, and resuspended in lysis buffer (20 mM Tris/HCl pH 7.8, 300 mM NaCl, 30 mM imidazole, 0.1% IGEPAL CA-630, 3.5 mM β-mercaptoethanol, 20 µg/ml leupeptin, 2 µg/ml antipain and 1 µg/ml pepstatin). Cells were incubated with 1 […]

[2] = biological target: T2, c7 (mouse ATGL containing aa 1–146 of human ATGL) (Mus musculus, UniProt Q8BJ56, A60V/C106S/C97F/G96S/H22Y/I23V/I69F/K7T/N111S/N68K/R109H/S133N/T101V/T146G/T6K/T93I); conditions: variant c7, NG-497 (10 μM) or Atglistatin (10 μM)
T2 construct: host or cells: Expi293 cells, cell lysate
Description: as §1, §2, §3, §4, §5

[3] = tested on: c8 (mouse ATGL containing aa 60–146 of human ATGL); conditions: variant c8, NG-497 (10 μM) or Atglistatin (10 μM)
Description: as §1, §2, §3, §4, §5

T2 sequence (Q8BJ56 1-288 with the stated changes limits assumed): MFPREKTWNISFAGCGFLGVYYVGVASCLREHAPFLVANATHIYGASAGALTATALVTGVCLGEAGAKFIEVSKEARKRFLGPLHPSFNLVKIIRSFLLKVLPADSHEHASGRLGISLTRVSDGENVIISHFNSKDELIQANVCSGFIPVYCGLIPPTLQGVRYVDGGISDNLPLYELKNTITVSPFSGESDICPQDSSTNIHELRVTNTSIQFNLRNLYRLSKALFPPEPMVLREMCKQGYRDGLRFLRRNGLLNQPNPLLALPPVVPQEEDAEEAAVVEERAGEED
T1 sequence (Q96AD5 1-288 V60A/K68N/F69I/I93T/S96G/F97C/V101T/S106C/H109R/S111N/N133S/G146T/S158T): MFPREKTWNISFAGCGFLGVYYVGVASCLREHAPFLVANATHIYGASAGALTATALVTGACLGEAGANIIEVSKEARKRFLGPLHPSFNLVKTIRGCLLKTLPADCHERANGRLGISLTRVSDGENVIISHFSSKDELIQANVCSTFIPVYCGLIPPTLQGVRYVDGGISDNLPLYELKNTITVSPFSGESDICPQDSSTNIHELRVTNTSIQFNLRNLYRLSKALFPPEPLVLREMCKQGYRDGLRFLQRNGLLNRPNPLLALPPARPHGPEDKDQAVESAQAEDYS

Row | SMILES | inhibition of TAG hydrolase activity [1] | inhibition of TAG hydrolase activity [2] | inhibition of TAG hydrolase activity [3]
1 | CN(C)C(=O)Nc1cccc(-c2ccc(N(C)C)cc2)c1 [Atglistatin, reference compound] | inhibited | – | –
2 | CCOc1ccc(-c2cc(OC)cc(C(=O)OC(C)C)n2)cc1 [NG-497] | – | inhibited | inhibited

Source: article PMC9011347, “Small-Molecule Inhibitors Targeting Lipolysis in Human Adipocytes” (Journal of the American Chemical Society, 2022)
